Test results: article PMC6901909, “Synergy Pattern of Short Cationic Antimicrobial Peptides Against Multidrug-Resistant Pseudomonas aeruginosa” (Frontiers in Microbiology, 2019)
In brackets after ≈: the same amount, converted by molar mass. Peptide text beside a SMILES is read from it.

What was measured:
MDR P. aeruginosa PA 910 = assay: microbe, parasite or virus in culture; assay type: cell-based, Pseudomonas aeruginosa; details: MDR PA 910, 18 h
Experimental: (§1) We selected six different P. aeruginosa isolates that were described as MDR and had been isolated from clinical and municipal waste water ([Schwartz et al., 2006]). The minimal inhibitory concentration (MIC) was determined in a microdilution assay using Mueller-Hinton (MH) broth following a previously published protocol ([Wiegand et al., 2008]). Briefly, a twofold serial dilution of the antibiotics and peptides were prepared and added to a bacteria solution, resulting in 2–5 10^5 CFU/ml. The microtiter plates (polypropylene, Corning) were incubated for 18 h at 37°C and MICs were taken visually.

MDR P. aeruginosa PA 919 = assay: microbe, parasite or virus in culture; assay type: cell-based, Pseudomonas aeruginosa
Experimental: as §1

MDR P. aeruginosa PA253 = assay: microbe, parasite or virus in culture; assay type: cell-based, Pseudomonas aeruginosa
Experimental: as §1

P. aeruginosa PA01-wt = assay: microbe, parasite or virus in culture; assay type: cell-based, Pseudomonas aeruginosa
Experimental: as §1

[1] = test system: MDR isolate of P. aeruginosa (PA 910); details: checkerboard, MHb
Experimental: The checkerboard assay was used to determine the fractional inhibitory concentrations (FICs), following the protocol described in Koneman’s Color Atlas and Textbook of Diagnostic Microbiology ([Winn et al., 2006]). Briefly, combinations of peptides and antibiotics were prepared in 96-well plates (polypropylene, Corning) in a twofold dilution series. After the addition of a log-phase bacterial inoculum of 2–5 × 10^5 CFU/ml, plates were incubated at 37°C for 18 h. The FICs were determined by visual inspection and the effects of the combinations were determined using the FICs. The FIC was computed by adding two partial FIC values, FICA—the MIC of drug A, tested in combination with drug B divided by the MIC of drug A, tested alone and FICB—the MIC of drug B, tested in combination with drug A divided by the MIC of drug B, tested alone [FIC = FICA + FICB = (MICAB/MICA) + (MICBA/MICB), where MICA and MICB are the MICs of drugs A and B alone, respectively, and MICAB and MICBA are the MIC concentrations of the drugs in combination]. Here we use the European Committee for Antimicrobial Susceptibility Testing (EUCAST) definition, which is very similar to the definition provided by [Odds, 2003], except Odds define additive effects when FIC values are between 0.5 and 1 ([European Committee for Antimicrobial Susceptibility Testing [EUCAST] of the European Society of Clinical Microbiology and Infectious Diseases [ESCMID], 2000]; [Odds, 2003]). The combination of peptide (drug A) and antibiotics (drug B) was defined as synergistic if the FIC was ≤ 0.5, indifferent if the FIC was > 0.5 but ≤ 4.0 and antagonistic if the FIC was > 4.0.

[2] = short AMPs, microdilution, Mueller-Hinton broth, 18 h at 37°C, read visually, triplicate (n = 3)

Row | SMILES | MIC against PA910 in μM (peptides, Table 4) (MDR P. aeruginosa PA 910) [µM] | MIC against MDR isolates of PA, PA919 (MDR P. aeruginosa PA 919; MDR PA 919, 18 h) [µM] | MIC against MDR isolates of PA, PA253 (MDR P. aeruginosa PA253; MDR PA253, 18 h) [µM] | MIC against PA01 wt (P. aeruginosa PA01-wt; -wt, 18 h) [µM] | further results
1 | CC[C@H](C)[C@H](NC(=O)[C@H](CCCNC(=N)N)NC(=O)[C@H](Cc1c[nH]c2ccccc12)NC(=O)[C@H](CCCNC(=N)N)NC(=O)[C@H](CCCNC(=N)N)NC(=O)[C@@H](N)CCCCN)C(=O)N[C@@H](Cc1c[nH]c2ccccc12)C(=O)N[C@@H](CC(C)C)C(=O)N[C@H](C(N)=O)C(C)C [LOP3] (H-KRRWRIWLV-NH2) | 8 (≈ 10.5 µg/mL) | 4 | 4 to 8 | 4 (≈ 5.25 µg/mL) | 
2 | CC[C@H](C)[C@H](NC(=O)[C@@H](N)Cc1ccccc1)C(=O)N[C@@H](CCCCN)C(=O)N[C@@H](Cc1c[nH]c2ccccc12)C(=O)N[C@@H](CCCNC(=N)N)C(=O)N[C@@H](CO)C(=O)N[C@@H](CCCNC(=N)N)C(=O)N[C@@H](Cc1c[nH]c2ccccc12)C(=O)N[C@@H](Cc1c[nH]c2ccccc12)C(=O)N[C@@H](CCCCN)C(=O)N[C@@H](CCCCN)C(=O)N[C@@H](CCCNC(=N)N)C(=O)N[C@H](C(N)=O)[C@@H](C)O [Indopt 3] (H-FIKWRSRWWKKRT-NH2) | 8 (≈ 15 µg/mL) | 32 | 16 | 4 (≈ 7.51 µg/mL) | 
3 | CC[C@H](C)[C@H](NC(=O)[C@H](Cc1c[nH]c2ccccc12)NC(=O)[C@H](CCCCN)NC(=O)[C@H](CCCCN)NC(=O)[C@H](CC(C)C)NC(=O)[C@H](Cc1c[nH]c2ccccc12)NC(=O)[C@H](CCCCN)NC(=O)[C@@H](N)Cc1c[nH]c2ccccc12)C(=O)N[C@@H](CCCCN)C(N)=O [LOP5] (H-WKWLKKWIK-NH2) | 8 (≈ 10.5 µg/mL) | 8 | 8 | 4 (≈ 5.26 µg/mL) | 
4 | CC(C)[C@H](NC(=O)[C@H](Cc1c[nH]c2ccccc12)NC(=O)[C@H](CCCNC(=N)N)NC(=O)[C@H](Cc1c[nH]c2ccccc12)NC(=O)[C@H](Cc1c[nH]c2ccccc12)NC(=O)[C@H](CCCNC(=N)N)NC(=O)[C@@H](N)CCCNC(=N)N)C(=O)N[C@H](C(=O)N[C@@H](Cc1c[nH]c2ccccc12)C(N)=O)C(C)C [LOP2] (H-RRWWRWVVW-NH2) | 8 (≈ 11.4 µg/mL) | 2 | 8 | 4 (≈ 5.71 µg/mL) | 
5 | CC[C@H](C)[C@H](N)C(=O)N[C@@H](CC(C)C)C(=O)N[C@@H](CCCCN)C(=O)N[C@@H](Cc1c[nH]c2ccccc12)C(=O)N[C@@H](CCCCN)C(=O)N[C@@H](CCCNC(=N)N)C(=O)N[C@@H](CCCCN)C(=O)N[C@@H](Cc1c[nH]c2ccccc12)C(=O)N[C@@H](Cc1c[nH]c2ccccc12)C(=O)N[C@@H](CCCCN)C(=O)N[C@@H](Cc1c[nH]c2ccccc12)C(=O)N[C@@H](Cc1ccccc1)C(=O)N[C@@H](CCCNC(=N)N)C(N)=O [Indopt 7] (H-ILKWKRKWWKWFR-NH2) | 4 (≈ 7.84 µg/mL) | 32 | 8 | 2 (≈ 3.92 µg/mL) | 
6 | CC[C@H](C)[C@H](NC(=O)[C@@H](N)Cc1ccccc1)C(=O)N[C@@H](CCCCN)C(=O)N[C@@H](Cc1c[nH]c2ccccc12)C(=O)N[C@@H](CCCCN)C(=O)N[C@@H](CCCCN)C(=O)N[C@@H](CCCNC(=N)N)C(=O)N[C@@H](Cc1c[nH]c2ccccc12)C(=O)N[C@@H](Cc1c[nH]c2ccccc12)C(=O)N[C@@H](CCCCN)C(=O)N[C@@H](CCCCN)C(=O)N[C@@H](CCCNC(=N)N)C(=O)N[C@H](C(N)=O)[C@@H](C)O [Indopt 1] (H-FIKWKKRWWKKRT-NH2) | 8 (≈ 15.1 µg/mL) | 32 | 16 | 4 (≈ 7.56 µg/mL) | 
7 | CC[C@H](C)[C@H](N)C(=O)N[C@@H](CC(C)C)C(=O)N1CCC[C@H]1C(=O)N[C@@H](Cc1c[nH]c2ccccc12)C(=O)N[C@@H](CCCCN)C(=O)N[C@@H](Cc1c[nH]c2ccccc12)C(=O)N1CCC[C@H]1C(=O)N[C@@H](Cc1c[nH]c2ccccc12)C(=O)N[C@@H](Cc1c[nH]c2ccccc12)C(=O)N1CCC[C@H]1C(=O)N[C@@H](Cc1c[nH]c2ccccc12)C(=O)N[C@@H](CCCNC(=N)N)C(=O)N[C@@H](CCCNC(=N)N)C(N)=O [Indolic., indolicidin] |  |  |  |  | MIC against MDR isolates of PA, PA919 (MDR P. aeruginosa PA 919; [2]): 32 µM; MIC against MDR isolates of PA, PA253 (MDR P. aeruginosa PA253; [2]): 64 to 128 µM; MIC against PA01 wt (P. aeruginosa PA01-wt; [2]): 8 µM (≈ 15.3 µg/mL); FIC mean (SD), combination with CET ([1]; confirmation study, peptide + ceftazidime, Indopt versions 1/8 MHb, mean of at least three measurements (n = 3), SD in brackets): 0.71 (0.21); FIC, combination with AMI ([1]; peptide + amikacin, for the Indopt versions 1/8 MHb, 2–5 × 10^5 CFU/ml, 37°C, 18 h, visual, determined once (n = 1)): 0.75; FIC, combination with CEF ([1]; peptide + cefepime, for the Indopt versions 1/8 MHb, 2–5 × 10^5 CFU/ml, 37°C, 18 h, visual, determined once (n = 1)): 2; FIC, combination with CET ([1]; peptide + ceftazidime, for the Indopt versions 1/8 MHb, 2–5 × 10^5 CFU/ml, 37°C, 18 h, visual, determined once (n = 1)): 0.51; FIC, combination with CIP ([1]; peptide + ciprofloxacin, for the Indopt versions 1/8 MHb, 2–5 × 10^5 CFU/ml, 37°C, 18 h, visual, determined once (n = 1)): 0.5; FIC, combination with ERY ([1]; peptide + erythromycin, for the Indopt versions 1/8 MHb, 2–5 × 10^5 CFU/ml, 37°C, 18 h, visual, determined once (n = 1)): 0.63; FIC, combination with GEN ([1]; peptide + gentamycin, for the Indopt versions 1/8 MHb, 2–5 × 10^5 CFU/ml, 37°C, 18 h, visual, determined once (n = 1)): 0.5; FIC, combination with IMI ([1]; peptide + imipenem, for the Indopt versions 1/8 MHb, 2–5 × 10^5 CFU/ml, 37°C, 18 h, visual, determined once (n = 1)): 0.63; FIC, combination with KAN ([1]; peptide + kanamycin, for the Indopt versions 1/8 MHb, 2–5 × 10^5 CFU/ml, 37°C, 18 h, visual, determined once (n = 1)): 0.75; FIC, combination with MER ([1]; peptide + meropenem, for the Indopt versions 1/8 MHb, 2–5 × 10^5 CFU/ml, 37°C, 18 h, visual, determined once (n = 1)): 0.63; FIC, combination with PIP ([1]; peptide + piperacillin, for the Indopt versions 1/8 MHb, 2–5 × 10^5 CFU/ml, 37°C, 18 h, visual, determined once (n = 1)): 0.56; FIC, combination with PMB ([1]; peptide + polymyxin B, for the Indopt versions 1/8 MHb, 2–5 × 10^5 CFU/ml, 37°C, 18 h, visual, determined once (n = 1)): 0.25; FIC, combination with TET ([1]; peptide + tetracycline, for the Indopt versions 1/8 MHb, 2–5 × 10^5 CFU/ml, 37°C, 18 h, visual, determined once (n = 1)): 1; FIC, combination with TOB ([1]; peptide + tobramycin, for the Indopt versions 1/8 MHb, 2–5 × 10^5 CFU/ml, 37°C, 18 h, visual, determined once (n = 1)): 0.5
8 | CC[C@H](C)[C@H](NC(=O)[C@@H](NC(=O)[C@H](CCCNC(=N)N)NC(=O)[C@H](Cc1c[nH]c2ccccc12)NC(=O)[C@H](CCCNC(=N)N)NC(=O)[C@@H](N)CCCNC(=N)N)C(C)C)C(=O)N[C@H](C(=O)N[C@@H](CCCCN)C(=O)N[C@@H](Cc1c[nH]c2ccccc12)C(N)=O)C(C)C [LOP4] (H-RRWRVIVKW-NH2) | 4 (≈ 5.19 µg/mL) | 4 | 8 | 4 (≈ 5.19 µg/mL) | 
9 | CC[C@H](C)[C@H](NC(=O)[C@H](CCCNC(=N)N)NC(=O)[C@H](C)NC(=O)[C@H](CC(C)C)NC(=O)[C@@H](N)CCCNC(=N)N)C(=O)N[C@H](C(=O)N[C@H](C(=O)N[C@H](C(=O)N[C@@H](CCCNC(=N)N)C(=O)N[C@H](C(=O)N[C@@H](C)C(=O)N[C@@H](CCCNC(=N)N)C(N)=O)C(C)C)[C@@H](C)CC)C(C)C)C(C)C [Bac2a] (H-RLARIVVIRVAR-NH2) | 32 (≈ 45.5 µg/mL) | 16 | 32 | 16 (≈ 22.7 µg/mL) | 
10 | CC[C@H](C)[C@H](NC(=O)[C@@H](N)Cc1ccccc1)C(=O)N[C@@H](CCCCN)C(=O)N[C@@H](Cc1c[nH]c2ccccc12)C(=O)N[C@@H](CCCNC(=N)N)C(=O)N[C@@H](Cc1ccccc1)C(=O)N[C@@H](CCCNC(=N)N)C(=O)N[C@@H](CCCNC(=N)N)C(=O)N[C@@H](Cc1c[nH]c2ccccc12)C(=O)N[C@@H](CCCCN)C(=O)N[C@@H](CCCCN)C(=O)N[C@@H](CCCNC(=N)N)C(=O)N[C@H](C(N)=O)[C@@H](C)O [Indopt 2] (H-FIKWRFRRWKKRT-NH2) | 8 (≈ 15.3 µg/mL) | 32 | 16 | 4 (≈ 7.63 µg/mL) | 
